# ChEMBL document CHEMBL5649166, “RIP3 induces apoptosis independent of pronecrotic kinase activity” (Mol Cell, 2014)
# Legend:
# [1] = biological target: T1, Ephrin type-A receptor 1 (Homo sapiens) (UniProt P21709); experiment: Residual activity of human EPHA1 using poly[Glu:Tyr] (4:1) as substrate at 1 uM in presence of 32P-ATP by Hotspot assay relative to control
# T1 sequence (whole entry): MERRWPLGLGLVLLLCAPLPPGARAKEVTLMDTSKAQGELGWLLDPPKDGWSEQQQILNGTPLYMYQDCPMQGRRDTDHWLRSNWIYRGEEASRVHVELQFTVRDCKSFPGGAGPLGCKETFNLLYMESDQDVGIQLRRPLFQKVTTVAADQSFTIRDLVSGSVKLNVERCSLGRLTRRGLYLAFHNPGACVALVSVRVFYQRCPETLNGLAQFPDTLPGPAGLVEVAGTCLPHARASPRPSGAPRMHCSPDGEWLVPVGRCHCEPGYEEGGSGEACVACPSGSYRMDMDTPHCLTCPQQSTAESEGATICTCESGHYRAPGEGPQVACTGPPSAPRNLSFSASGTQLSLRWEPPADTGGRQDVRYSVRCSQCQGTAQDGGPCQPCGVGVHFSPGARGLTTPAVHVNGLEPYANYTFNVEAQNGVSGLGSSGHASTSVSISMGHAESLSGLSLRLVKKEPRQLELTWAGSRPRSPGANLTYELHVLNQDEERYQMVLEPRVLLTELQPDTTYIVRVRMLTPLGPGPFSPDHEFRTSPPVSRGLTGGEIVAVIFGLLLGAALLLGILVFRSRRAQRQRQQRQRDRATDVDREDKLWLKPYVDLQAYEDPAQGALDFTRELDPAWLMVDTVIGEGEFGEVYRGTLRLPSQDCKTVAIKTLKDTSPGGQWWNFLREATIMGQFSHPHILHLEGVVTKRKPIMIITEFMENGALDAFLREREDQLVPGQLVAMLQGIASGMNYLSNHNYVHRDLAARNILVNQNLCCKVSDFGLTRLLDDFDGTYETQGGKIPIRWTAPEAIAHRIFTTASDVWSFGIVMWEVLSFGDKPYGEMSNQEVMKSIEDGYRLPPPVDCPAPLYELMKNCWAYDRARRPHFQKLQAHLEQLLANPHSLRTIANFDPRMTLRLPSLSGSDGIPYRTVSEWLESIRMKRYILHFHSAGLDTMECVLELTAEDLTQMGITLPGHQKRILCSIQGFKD
# [2] = biological target: Mitogen-activated protein kinase 9 (Homo sapiens) (UniProt P45984); experiment: Inhibition of human JNK2 using ATF2 as substrate at 1 uM in presence of 32P-ATP by Hotspot assay relative to control; values are per cent of control
# [3] = biological target: T2, Serine/threonine-protein kinase 17A (Homo sapiens) (UniProt Q9UEE5); experiment: Inhibition of human DRAK1/STK17A using KKLNRTLSFAEPG as substrate at 1 uM in presence of 32P-ATP by Hotspot assay relative to control; values are per cent of control
# T2 sequence (whole entry): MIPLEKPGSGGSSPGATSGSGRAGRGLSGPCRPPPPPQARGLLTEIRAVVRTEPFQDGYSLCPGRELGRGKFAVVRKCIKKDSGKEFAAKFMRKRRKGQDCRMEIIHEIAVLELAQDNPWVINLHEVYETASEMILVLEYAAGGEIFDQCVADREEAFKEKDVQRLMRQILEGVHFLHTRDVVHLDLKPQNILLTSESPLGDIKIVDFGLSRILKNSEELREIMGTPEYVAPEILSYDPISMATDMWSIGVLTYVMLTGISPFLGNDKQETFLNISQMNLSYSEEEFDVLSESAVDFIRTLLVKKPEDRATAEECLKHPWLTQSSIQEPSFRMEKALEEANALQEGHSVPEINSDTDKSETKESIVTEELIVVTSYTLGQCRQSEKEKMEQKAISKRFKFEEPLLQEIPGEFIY
# [4] = biological target: Homeodomain-interacting protein kinase 2 (Homo sapiens) (UniProt Q9H2X6); experiment: Inhibition of human HIPK2 using myelin basic protein as substrate at 1 uM in presence of 32P-ATP by Hotspot assay relative to control; values are per cent of control
# [5] = biological target: T3, Dual serine/threonine and tyrosine protein kinase (Homo sapiens) (UniProt Q6XUX3); experiment: Inhibition of human RIPK5 using myelin basic protein as substrate at 1 uM in presence of 32P-ATP by Hotspot assay relative to control; values are per cent of control
# T3 sequence (whole entry): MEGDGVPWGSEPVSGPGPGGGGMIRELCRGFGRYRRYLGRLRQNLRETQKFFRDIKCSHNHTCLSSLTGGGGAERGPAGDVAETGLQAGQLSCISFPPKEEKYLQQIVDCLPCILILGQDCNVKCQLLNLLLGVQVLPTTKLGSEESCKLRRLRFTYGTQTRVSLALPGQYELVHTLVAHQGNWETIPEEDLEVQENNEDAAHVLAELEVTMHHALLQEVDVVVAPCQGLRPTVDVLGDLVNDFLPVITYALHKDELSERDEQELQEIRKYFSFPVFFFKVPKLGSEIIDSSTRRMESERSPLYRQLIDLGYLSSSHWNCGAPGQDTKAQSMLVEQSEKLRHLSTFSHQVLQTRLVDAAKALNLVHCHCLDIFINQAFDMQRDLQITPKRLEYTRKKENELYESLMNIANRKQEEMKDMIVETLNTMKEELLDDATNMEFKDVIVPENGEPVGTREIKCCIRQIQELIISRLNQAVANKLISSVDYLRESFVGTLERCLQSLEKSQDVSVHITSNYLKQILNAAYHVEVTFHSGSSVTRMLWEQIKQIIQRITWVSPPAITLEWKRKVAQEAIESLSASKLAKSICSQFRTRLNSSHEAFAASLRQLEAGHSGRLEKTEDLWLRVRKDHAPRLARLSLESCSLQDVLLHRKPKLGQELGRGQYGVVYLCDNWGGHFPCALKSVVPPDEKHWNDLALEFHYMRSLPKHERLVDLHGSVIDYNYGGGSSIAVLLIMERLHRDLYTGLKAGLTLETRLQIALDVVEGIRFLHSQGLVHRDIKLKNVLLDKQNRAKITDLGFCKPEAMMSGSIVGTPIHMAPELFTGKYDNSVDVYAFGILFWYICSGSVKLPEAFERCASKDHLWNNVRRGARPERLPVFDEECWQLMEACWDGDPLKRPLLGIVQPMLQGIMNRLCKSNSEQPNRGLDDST
# Homeodomain-interacting protein kinase 2 (Homo sapiens), sequence (Q9H2X6 whole entry, looked up): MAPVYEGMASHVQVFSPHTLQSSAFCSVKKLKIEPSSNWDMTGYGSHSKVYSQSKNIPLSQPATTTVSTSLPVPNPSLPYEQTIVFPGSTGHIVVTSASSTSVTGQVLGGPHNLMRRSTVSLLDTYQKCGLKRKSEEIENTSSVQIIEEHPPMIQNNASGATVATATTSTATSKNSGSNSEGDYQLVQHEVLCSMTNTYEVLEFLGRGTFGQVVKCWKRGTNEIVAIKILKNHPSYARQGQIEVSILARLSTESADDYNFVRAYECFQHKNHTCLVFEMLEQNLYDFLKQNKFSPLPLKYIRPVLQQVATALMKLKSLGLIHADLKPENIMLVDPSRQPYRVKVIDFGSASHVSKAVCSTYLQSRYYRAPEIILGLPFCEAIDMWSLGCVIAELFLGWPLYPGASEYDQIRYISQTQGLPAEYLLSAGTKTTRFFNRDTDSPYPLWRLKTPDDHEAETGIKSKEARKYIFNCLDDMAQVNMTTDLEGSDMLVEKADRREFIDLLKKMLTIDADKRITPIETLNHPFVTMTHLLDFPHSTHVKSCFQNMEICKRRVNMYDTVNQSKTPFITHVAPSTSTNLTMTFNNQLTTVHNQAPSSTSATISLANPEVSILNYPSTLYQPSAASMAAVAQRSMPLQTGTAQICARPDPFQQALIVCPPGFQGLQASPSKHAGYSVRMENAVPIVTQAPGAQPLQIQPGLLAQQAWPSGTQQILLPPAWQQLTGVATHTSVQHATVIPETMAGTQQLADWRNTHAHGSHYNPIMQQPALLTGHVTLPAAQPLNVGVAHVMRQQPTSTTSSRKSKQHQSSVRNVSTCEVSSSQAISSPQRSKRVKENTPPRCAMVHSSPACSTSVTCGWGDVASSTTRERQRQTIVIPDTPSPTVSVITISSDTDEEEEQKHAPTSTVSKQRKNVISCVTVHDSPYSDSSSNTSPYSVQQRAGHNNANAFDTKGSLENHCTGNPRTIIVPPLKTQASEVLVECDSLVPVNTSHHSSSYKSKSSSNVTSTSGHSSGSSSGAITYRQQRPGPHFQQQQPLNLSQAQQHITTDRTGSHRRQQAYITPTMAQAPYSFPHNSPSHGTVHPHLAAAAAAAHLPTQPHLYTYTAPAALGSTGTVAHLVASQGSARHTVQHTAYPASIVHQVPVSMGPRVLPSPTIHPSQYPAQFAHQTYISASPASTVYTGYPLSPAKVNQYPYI
# Mitogen-activated protein kinase 9 (Homo sapiens), sequence (P45984 whole entry, looked up): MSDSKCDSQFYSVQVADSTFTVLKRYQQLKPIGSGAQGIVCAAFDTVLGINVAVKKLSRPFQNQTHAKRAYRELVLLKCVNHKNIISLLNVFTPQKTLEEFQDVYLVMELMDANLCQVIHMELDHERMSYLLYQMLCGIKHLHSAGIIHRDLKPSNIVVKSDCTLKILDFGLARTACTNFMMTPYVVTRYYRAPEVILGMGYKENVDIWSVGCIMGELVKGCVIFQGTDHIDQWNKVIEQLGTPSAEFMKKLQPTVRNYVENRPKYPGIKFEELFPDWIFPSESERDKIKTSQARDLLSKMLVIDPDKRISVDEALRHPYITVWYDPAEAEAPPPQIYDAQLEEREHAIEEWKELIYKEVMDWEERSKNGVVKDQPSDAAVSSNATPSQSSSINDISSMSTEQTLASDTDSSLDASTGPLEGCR
SMILES,residual activity [1],residual activity [2],residual activity [3],residual activity [4],residual activity [5]
CNC(=O)c1ccc2c(c1)ncn2-c1ccc(CC(=O)OC(C)(C)C)cc1,84.8%,96.6%,98.9%,88.1%,95.6%
Cc1cc(-c2cnc(N)c3c(-c4ccc5scnc5c4)csc23)n(C)n1,56.5%,69.7%,96.8%,95.9%,101%
CC(C)S(=O)(=O)c1ccc2nccc(Nc3ccc4scnc4c3)c2c1,53.9%,106%,99%,101%,106%
